Test results as given in the METLIN SMRT retention time set (Domingo-Almenara et al. 2019).

Experiment: gradient 5% acetonitrile 3 min, to 50% in 2 min, to 85% in 15 min, held 3 min, 100 µL/min
Settings: column: Zorbax Extend-C18 2.1 x 50 mm; eluents: water / acetonitrile, 0.1% formic acid
Outline: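 Values are retention times taken from adduct peaks that software picked and an analyst inspected. The pure standards were run as mixtures of ~100 molecules on HPLC linked to a quadrupole time-of-flight mass spectrometer, in positive and negative ionization mode. A Zorbax Extend-C18 column (2.1 × 50 mm, 1.8 μm) was used at 100 μL/min with water and acetonitrile, each including 0.1% formic acid.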

Compound	RP-LC retention time
O=C(c1cc(-c2ccncc2)n[nH]1)N1CCC(C(=O)N2CCc3ccccc32)CC1	614 s
CC(C)NC(=O)C1CCC(=O)N1C1CCN(C(=O)C2CCCCC2)CC1 (stereo not drawn)	591 s
Cc1ccc(-c2csc(Cc3nc(-c4cccc(F)c4)no3)n2)cc1C	1360 s
Cc1ccc(NS(=O)(=O)c2ccc(-c3c(C)noc3C)cc2)cc1C	996 s
COc1cc2c(cc1OC)C(C(=O)N1CCN(c3ccccn3)CC1)C(c1cccnc1)N(C)C2=O (stereo not drawn)	1230 s
CCC(=O)N(C)c1nc2ccccc2n(CC(=O)Nc2c(C)cc(C)cc2C)c1=O	822 s
Cc1ccc2c(=O)c(C(=O)c3ccc(Cl)cc3)cn(CC(=O)NCC3CCCO3)c2n1 (stereo not drawn)	745 s
CCCn1cc(CCNC(=O)C2CCCCC2)c2cccnc21	772 s
Cc1ncc2c(n1)C[C@@H]1CC[C@H]2N1C(=O)Nc1ccc(F)cc1F	649 s
COCCCn1c(=O)c2ccccc2n(Cc2nc(-c3ccc(C)c(C)c3)no2)c1=O	1120 s
CC(C)OC(=O)Cn1nc(-c2nc(-c3cccc(Cl)c3)no2)ccc1=O	1100 s
O=C(C1CCN(c2cncnc2N2CCOCC2)CC1)N1CCOCC1	556 s
CCc1ccccc1NC(=O)Cn1c(C)nc2onc(C)c2c1=O	845 s
CCn1nc(N2CCCC(NS(=O)(=O)c3cccc4cccnc34)C2)ccc1=O (stereo not drawn)	736 s
CCOC(=O)c1c(C)[nH]c(C(=O)N2CCC(CC(=O)NCc3cccc(F)c3)CC2)c1C	779 s
CN1CCN(CCNC(=O)CSCc2nc3cccnc3n2C2CCCCC2)CC1	600 s
Cc1ccn2cc(C(=O)N3CCN(c4ccc(Cl)cc4)CC3)nc2c1	715 s
O=C(C1CCN(Cc2cc3ccccc3n2Cc2cccc(F)c2)CC1)N1CCCC1	721 s
CN(C)C(=O)c1ccc2c(c1)N(CC(=O)Nc1ccc3c(c1)OCCO3)C(=O)C1CCCCN21 (stereo not drawn)	750 s
O=C(Nc1nc(-c2ccccc2)ns1)c1ccccc1Cl	989 s
O=C(NCCCN1CCN(c2ccccc2)CC1)C1CCCN(c2nc3cccnc3s2)C1 (stereo not drawn)	643 s
O=C(Cc1ccccc1Br)NC1CCCN(c2cc(-c3ccccc3)[nH]n2)C1 (stereo not drawn)	811 s
CCOC(=O)COC(=O)c1cn(-c2cccc(C)c2)c(=O)c2ccccc12	718 s
COc1ccc(N2C(=O)CCS2(=O)=O)cc1S(=O)(=O)NCCc1c[nH]c2ccccc12	792 s
NC(C(=O)N[C@@H]1C(=O)N2C(C(=O)O)=C(Cl)CS[C@H]12)c1ccccc1 (stereo partly drawn)	563 s

Compound	RP-LC retention time
O=c1c2nnc3c(-c4ccccc4)cnn3c2ccn1CCc1c[nH]c2ccccc12	917 s
Cc1ncoc1C(=O)N1CCC(c2noc(-c3ccccc3)n2)C1 (stereo not drawn)	763 s
COc1ccc(N2CCN(CCCNC(=O)NC3COc4ccc(OC)cc4C3)CC2)cc1 (stereo not drawn)	687 s
Cc1ccc(C(=O)N2CCCCC2c2nc(-c3ccncc3)no2)s1 (stereo not drawn)	904 s
O=C(C1CCN(c2nc3ccsc3c(=O)n2-c2ccccc2)CC1)N1CCN(c2ccccc2)CC1	917 s
CC(Cc1ccco1)NC(=O)C1CCN(S(C)(=O)=O)CC1 (stereo not drawn)	632 s
CCOC(=O)CNC(=O)Cn1nc2n(c(=O)c1=O)CCN2c1ccccc1	626 s
O=S(=O)(c1cc(F)ccc1F)N1CCN(Cc2cccc(F)c2)C2(CCOCC2)C1	886 s
O=C(CSc1ccc(S(=O)(=O)C2CCCCC2)nn1)NCc1cc(F)cc(F)c1	833 s
CCn1c(=O)sc2cc(S(=O)(=O)N3CCC(C(=O)NCCC4=CCCCC4)CC3)ccc21	958 s
Fc1ccc(CN2CCCCC2c2nncn2CC2CC2)cc1F (stereo not drawn)	619 s
CN1C(=O)C2CCCCN2c2ccc(C(=O)N3CCC(Cc4ccccc4)CC3)cc21 (stereo not drawn)	1110 s
Cc1ccccc1OCC(=O)Nc1nc(-c2ccccc2)cs1	1110 s
O=c1c2cc(-c3ccc(Br)cc3)nn2cnn1Cc1nc(-c2ccc(F)cc2)no1	1210 s
CCCCNC(=O)c1c(O)c2cccnc2n(-c2cccc(OC)c2)c1=O	1140 s
COc1ccccc1CNC(=O)c1cn2c(n1)CCCC2	589 s
O=C(NC1CCc2nnc(C3CC3)n2CC1)c1cccs1 (stereo not drawn)	589 s
CC(=O)c1ccc(NC(=O)Cn2nc3c4cc(-c5ccccc5)nn4ccn3c2=O)cc1	818 s
Cn1cc(S(=O)(=O)N2CCCCC2)cc1C(=O)N1CCN(c2ccc(F)cc2)CC1	940 s
COCCC(=O)N1CC(F)(F)C[C@H]1c1nc(C2CC2)no1	713 s
CN(CC1CCOC1)C(=O)c1cccc(Cl)c1 (stereo not drawn)	672 s
Cc1ccc(C)c(N2CCN(C(=O)c3cc(-c4ccncc4)cn3C)CC2)c1	710 s
Cc1cc(C)n2c(Nc3ccccc3)c(-c3ccc(Br)cc3O)nc2n1	1120 s
COc1ccc(OC)c(-c2csc(-c3nnn(-c4ccc(C)cc4)c3N)n2)c1	1160 s
O=C(CN1C(=O)NC2(CCCCC2)C1=O)Nc1ccc(F)cc1F	736 s

The next lines start with the values.

RP-LC retention time	Compound
832 s	Cc1noc(-c2ccc(NC(=O)COc3ccccc3F)cc2)n1
790 s	Cc1ccc(S(=O)(=O)NCC(c2cccnc2)c2cn(C)c3ccccc23)cc1C (stereo not drawn)
743 s	Cc1ccc(-c2ccc(N3CCN(c4ccccn4)CC3)nn2)cc1S(=O)(=O)N1CCC(C)CC1
676 s	COc1cc(C2NCCc3c2[nH]c2ccccc32)ccc1OC(C)C (stereo not drawn)
773 s	O=C(NCCn1c(=O)n(Cc2ccccc2)c2cccnc21)c1ccc2c(c1)OCO2
759 s	CCOC(=O)c1c(C)[nH]c(C(=O)N2CCCC(C(=O)NC3CCCC3)C2)c1C (stereo not drawn)
685 s	Cc1ccc(F)cc1S(=O)(=O)N1CCC2(CCN(c3cccnc3)C2)C1 (stereo not drawn)
666 s	NC(=O)c1ccccc1NC(=O)CCCn1cnc(-c2ccc(F)cc2)cc1=O
846 s	COc1cccc(CNC(=O)CN2C(=O)CSc3cccn3-c3ccccc32)c1
660 s	Cc1cc(N2CCN(C(=O)Nc3ccc4c(c3)OCO4)CC2)nc(N2CCCCC2)n1
620 s	COc1ccc(-c2csc(Nc3cccnc3)n2)cc1OC
1280 s	CCCN1C(=O)COc2ccc(-c3noc(-c4ccccc4Br)n3)cc21
1010 s	O=C(Nc1cncc(-c2nc3ccccc3o2)c1)c1cccc(Cl)c1
632 s	CCC1CN(C(=O)N2CCC(C(=O)NCCN3CCOCC3)CC2)c2cc(C)ccc2O1 (stereo not drawn)
899 s	COc1ccc(C(=O)Nc2nnc(SCc3nnc(-c4ccccc4)o3)s2)cc1
753 s	O=C(Cn1cc(-c2ccccc2)c2ncnc(N3CCOCC3)c21)NC1CCCCC1
682 s	O=C(NCCc1csc(C2CCCN(C(=O)C3CC3)C2)n1)C1CCC1 (stereo not drawn)
742 s	CCc1ccc(S(=O)(=O)N2CCC3(CC2)NCCN=C3NCc2ccccc2)cc1
790 s	CCOc1ccccc1C(=O)N1CCC2(CC1)NC(=O)c1ccc(Cl)cc1N2

RP-LC retention time	Compound
836 s	Cc1ccc(Cn2c(=O)n(CCNC(=O)C3CCCC3)c3ncccc32)cc1
596 s	CCOC(=O)c1nc(N2CCN(c3ccccn3)CC2)c2c(C)noc2n1
686 s	CCCN(Cc1ccc(OCC)cc1)Cc1cc(=O)n2cc(Cl)ccc2n1
912 s	COc1ccc(OC)c(S(=O)(=O)N2CCc3c(c(-c4nnc(-c5ccccc5)o4)nn3C)C2)c1
750 s	Cc1cc2c(cc1CNC(=O)c1ccco1)OCCCO2
1060 s	COc1cc(OC)cc(-c2nc(-c3nnn(Cc4ccccc4)c3C)no2)c1
1070 s	Cc1ccc(-c2ccc(-n3nc(C)c(S(=O)(=O)Nc4ccc(F)cc4)c3C)nn2)cc1
738 s	CC(C)N(C(=O)Cn1c(CN2CCCCC2)nc2ccccc21)c1ccccc1
626 s	O=C(c1ccc(Br)cc1)N1CCN(C(=O)c2cc(-c3cccnc3)n[nH]2)CC1
821 s	CCOC(=O)c1cn(CC(=O)Nc2ccc(Br)cc2)c2nc(C)ccc2c1=O
803 s	CN1CCCc2cc(C(CNC(=O)C(=O)NCCC3=CCCCC3)N3CCCC3)ccc21 (stereo not drawn)
893 s	COCc1nnc(C(=O)Nc2ccc(C(=O)NCCc3c[nH]c4ccc(Cl)cc34)cc2)s1
1110 s	CCN1C(=O)COc2ccc(-c3nc(NC(=O)c4cccc(Cl)c4)sc3C)cc21
707 s	CC[C@H](C)NC(=O)Cc1nnc(-c2ccc(OC)cc2)o1
1100 s	COc1ccc(-c2csc(Nc3ccc(Br)cn3)n2)cc1OC
627 s	O=C(Nc1ccccc1Cl)N1CC(F)(F)C[C@H]1CN1CCCC1
720 s	CC(=O)N1CCc2cc(N3CC(C(=O)NCc4ccc(Cl)cc4)CC3=O)ccc21 (stereo not drawn)
604 s	COc1ccc(S(=O)(=O)N2CCCC(C(=O)NCc3ccccn3)C2)cc1OC (stereo not drawn)
745 s	O=c1n(Cc2ccccc2F)nc2c(S(=O)(=O)N3CCOCC3)cccn12
